This experiment relates to mTORC2 activity (phosphorylation of Akt at Ser473). Put plainly: Cellular selectivity mTORC1 over mTORC2 (p4EBP1 vs pAkt). The class given is cell-based, human. The source says: The in vitro profile of RMC-5552 was characterized using standard biochemical and cellular assays to determine the mode of interaction with mTORC1 and mTORC2. The effect of RMC-5552 on established cellular readouts for mTORC1 activity (including phosphorylation of P70S6K at Thr389 and 4EBP1 at Thr37/46), mTORC2 activity (including phosphorylation of Akt at Ser473), and cellular proliferation was monitored.
RMC-5552 binds to the intracellular protein FKBP12 and engages the FRB allosteric site and the ATP binding site on the mTORC1 complex, leading to inhibition of mTOR kinase activity.

Molecules are shown by their SMILES.

As for `CO[C@H]1C[C@@H]2CC[C@@H](C)[C@@](O)(O2)C(=O)C(=O)N2CCCC[C@H]2C(=O)O[C@H]([C@H](C)C[C@@H]2CC[C@@H](OC(=O)NCCOCCOCCOCCOCCOCCOCCOCCOCCC(=O)NCCS(=O)(=O)c3ccc(C(=O)N4CCOc5ccc(-c6ccc(N)nc6)cc5C4)c(C)c3F)[C@H](OC)C2)C[C@@H](O)[C@H](C)/C=C(\C)[C@@H](O)[C@@H](OC)C(=O)[C@H](C)C[C@H](C)/C=C/C=C/C=C/1C` [RMC-6272], the “selective inhibition of mTORC1 over mTORC2” value was above 10 fold.

The values above are taken from US12121522B2, “Methods of treating cancer with an mTOR inhibitor” (Revolution Medicines, Inc., priority 2022, dated 2024).
